Results reported in patent US20250236902A1 (priority 2022, published 2025).
Read-outs that look alike come from different tables or passages of the source.

Columns and labels:
[1] = system: 3NACP (Clostridium perfringens NA); type: biochemical; conditions: 3 mU/mL 3NACP; 1 μM inhibitor vs without
[2] = system: 3NACP (Clostridium perfringens NA); type: binding; conditions: 0.3 mU/mL 3NACP
[3] = system: H3N2 NA; type: biochemical, influenza H3N2

SMILES | impedimetric response of AuE-H3 to 3NACP (1/Normalized RCT) with inhibitor [1] | adsorption response of GCE-H3 to 3NACP (Normalized RCT) with inhibitor ([2]; 0.1 μM inhibitor, vs 0 μM) | adsorption response of GCE-H3 to 3NACP (Normalized RCT) with inhibitor ([2]; 1 μM inhibitor) | inhibition effect on enzymatic response of AuE-H3 to H3N2 NA (normalized RCT) [3]
CCOC(=O)C1=C[C@@H](OC(CC)CC)[C@H](NC(C)=O)[C@@H](N)C1 [Oseltamivir] | decrease in response | lower adsorption response | further decrease in response | weak inhibition effect
CCC(CC)[C@H](NC(C)=O)[C@@H]1[C@H](O)[C@@H](C(=O)O)C[C@H]1N=C(N)N [Peramivir] | – | – | – | moderate inhibition effect
CC(=O)N[C@H]1[C@H]([C@H](O)[C@H](O)CO)OC(C(=O)O)=C[C@@H]1N=C(N)N [Zanamivir] | – | – | – | strongest effect
